In patent publication US20090191131A1, “USE OF PARTICULATE CONTRAST AGENTS IN DIAGNOSTIC IMAGING FOR STUDYING PHYSIOLOGICAL PARAMATERS” (priority 1998, published 2009):

How the values were obtained:
[1] = Temperature sensitivity of in vitro T1 relaxivity (r1), 0.47 T; type: physicochemical
Source text: FIG. 1 of the accompanying drawings and Table 5 below show the temperature sensitivity of in vitro T1 relaxivity (r1) for liposome encapsulated GdDTPA-BMA and GdHPDO3A, respectively (0.47T).

[2] = cited from earlier work
[3] = phosphatidylcholines; cited from earlier work

Structure (SMILES): CC(O)CN1CCN(CC(=O)[O-])CCN(CC(=O)[O-])CCN(CC(=O)[O-])CC1.[Gd+3] (stereo not shown) [Control, GdHPDO3A]
- r1 ([1]; 20 °C): 4.53 s⁻¹ mM⁻¹
- r1 ([1]; 25 °C): 4.27 s⁻¹ mM⁻¹
- r1 ([1]; 30 °C): 3.94 s⁻¹ mM⁻¹
- r1 ([1]; 37 °C): 3.75 s⁻¹ mM⁻¹
- r1 ([1]; 45 °C): 3.07 s⁻¹ mM⁻¹
- r1 ([1]; 55 °C): 2.82 s⁻¹ mM⁻¹
- r1 ([1]; 60 °C): 2.54 s⁻¹ mM⁻¹

Structure (SMILES): CCCCCCCCCCCCOC(=O)C(C)n1ccnc1 (stereo not shown) [DIP]
- pKa [2]: 6.8
- charged form ([2]; lysosomal pH (5.2)): over 97%
- non-ionized (non/low surfactant activity) form ([2]; pH 7.3-7.4 (physiological)): 80%

Structure (SMILES): CCCCCCCCCCCCC(=O)OC[C@H](COP(=O)([O-])OCC[N+](C)(C)C)OC(=O)CCCCCCCCCCCC [PC 13:0]
- Transition temperature Tc [3]: 14 °C

Structure (SMILES): CCCCCCCCCCCCCCCC(=O)O[C@H](COC(=O)CCCCCCCCCCCCC)COP(=O)([O-])OCC[N+](C)(C)C [PC 14:0-16:0]
- Transition temperature Tc [3]: 35 °C

Structure (SMILES): CCCCCCCCCCCCCCCCCC(=O)O[C@H](COC(=O)CCCCCCCCCCCCC)COP(=O)([O-])OCC[N+](C)(C)C [PC 14:0-18:0]
- Transition temperature Tc [3]: 40 °C

Structure (SMILES): CCCCCCCCCCCCCCC(=O)OC[C@H](COP(=O)([O-])OCC[N+](C)(C)C)OC(=O)CCCCCCCCCCCCCC [PC 15:0]
- Transition temperature Tc [3]: 33 °C

Structure (SMILES): CCCCCCCCCCCCCCCCCC(=O)O[C@H](COC(=O)CCCCCCCCCCCCCCC)COP(=O)([O-])OCC[N+](C)(C)C [PC 16:0-18:0]
- Transition temperature Tc [3]: 49 °C

Structure (SMILES): CCCCCCCCCCCCCCCCC(=O)OC[C@H](COP(=O)([O-])OCC[N+](C)(C)C)OC(=O)CCCCCCCCCCCCCCCC [PC 17:0]
- Transition temperature Tc [3]: 48 °C

Structure (SMILES): CCCCCCCCCCCCCCCCCC(=O)OC[C@H](COP(=O)([O-])OCC[N+](C)(C)C)OC(=O)CCCCCCCCCCCCCCC [PC 18:0-16:0]
- Transition temperature Tc [3]: 44 °C

Structure (SMILES): CCCCCCCCCCC/C=C\CCCCC(=O)OC[C@H](COP(=O)([O-])OCC[N+](C)(C)C)OC(=O)CCCC/C=C\CCCCCCCCCCC [PC 18:1c6]
- Transition temperature Tc [3]: 1 °C

Structure (SMILES): CCCCCCCC/C=C\CCCCCCCC(=O)OC[C@H](COP(=O)([O-])OCC[N+](C)(C)C)OC(=O)CCCCCCC/C=C\CCCCCCCC [PC 18:1c9]
- Transition temperature Tc [3]: −20 °C

Structure (SMILES): CCCCCCCC/C=C/CCCCCCCC(=O)OC[C@H](COP(=O)([O-])OCC[N+](C)(C)C)OC(=O)CCCCCCC/C=C/CCCCCCCC [PC 18:1t9]
- Transition temperature Tc [3]: 12 °C

Structure (SMILES): CCCCCCCCCCCCCCCCCCCC(=O)OC[C@H](COP(=O)([O-])OCC[N+](C)(C)C)OC(=O)CCCCCCCCCCCCCCCCCCC [PC 20:0]
- Transition temperature Tc [3]: 66 °C

Structure (SMILES): CCCCCCCCCCCCCCCCCCCCC(=O)OC[C@H](COP(=O)([O-])OCC[N+](C)(C)C)OC(=O)CCCCCCCCCCCCCCCCCCCC [PC 21:0]
- Transition temperature Tc [3]: 72 °C

Structure (SMILES): CCCCCCCCCCCCCCCCCCCCCC(=O)OCC(COP(=O)([O-])OCC[N+](C)(C)C)OC(=O)CCCCCCCCCCCCCCCCCCCCC (stereo not shown) [PC 22:0, Dibehenoyl-PC]
- Transition temperature Tc [3]: 75 °C

Structure (SMILES): CCCCCCCCCCCCCCCCCCCCCCC(=O)OC[C@H](COP(=O)([O-])OCC[N+](C)(C)C)OC(=O)CCCCCCCCCCCCCCCCCCCCCC [PC 23:0]
- Transition temperature Tc [3]: 79 °C

Structure (SMILES): CCCCCCCCCCCCCCCCCCCCCCCC(=O)OC[C@H](COP(=O)([O-])OCC[N+](C)(C)C)OC(=O)CCCCCCCCCCCCCCCCCCCCCCC [PC 24:0]
- Transition temperature Tc [3]: 80 °C
